Drawing on PMC11554305, “Functional identification of soluble uric acid as an endogenous inhibitor of CD38” (eLife, 2024), this text covers sUA uptake for one compound.

This data set deals with primed WT BMDMs. Nature of the data set: sUA uptake assay in primed WT BMDMs. The format is cell-based, mouse. Conditions: sUA 100, 200 or 500 μM, 2 or 15 hr. How it is done: WT BMDMs were primed with 100 ng/mL ultrapure LPS for 4 hr. Then, the cells were washed twice with sterile PBS, and maintained in RPMI-1640 medium containing sUA (100, 200, or 500 μM) for 2 or 15 hr. Subsequently, the cells were washed twice with ice-cold sterile PBS to terminate uptake, 100 μL 5% ice-cold PCA was added into each well. The plates were placed on ice for 2 hr, then cell samples were collected and centrifuged at 15,000 rpm, 4°C for 10 min. The supernatant was used for subsequent handling and measurement (see LC-MS/MS analysis).

Molecules are shown by their SMILES.

With `O=c1[nH]c(=O)c2[nH]c(=O)[nH]c2[nH]1` [sUA, uric acid], the sUA uptake result is listed as “very low”.
